# Values quoted from earlier work, collected in patent publication US20170266197A1, “METHODS AND COMPOSITIONS FOR TREATING HEPATITIS B VIRUS INFECTIONS” (Indiana University Research and Technology Corporation, priority 2014, published 2017).
# Test system: chronic hepatitis B infection
substance,measurement,setting,value
alpha interferon,patients who show a long term benefit,many patients relapse after treatment is stopped,about 30%
same,patients who respond to the treatment,of the chronic carriers obtaining this therapy,about 40%
same,viral disappearance in treated patients,treated patients,10-20%
